Experimental data taken from US7087649B2, “Methods for preventing and treating diseases and conditions associated with cellular stress” (Eisai Co., Ltd., priority 2001, dated 2006).

Tests used:
hangover = assay: clinical self-experiment on hangover symptoms after alcohol consumption; type: in vivo, human; details: one inventor on themself; 50 mg orally (capsule) just prior to drinking, 50 mg during, 50 mg next morning; total 150 mg in fourteen hours
Excerpt: The invention is based, in part, on a clinical experiment that an inventor of the invention described herein conducted on themself using SELBEX® (geranylgeranylacetone). On one occasion in the evening, they consumed an excessive amount of alcoholic beverages and awoke the following morning experiencing abdominal discomfort, nausea, fatigue, and headache. The normal measures that they had taken in the past to ameliorate hangover provided little relief. They decided that on the next occasion on which they would be drinking alcoholic beverages, they would ingest SELBEX® (geranylgeranylacetone) to determine whether it provided relief. Thus, on a subsequent evening, just prior to the drinking of alcoholic beverages, they ingested 50 mg of SELBEX® (geranylgeranylacetone) orally, in the form of a capsule marketed commercially by Eisai Co., Ltd. During the course of the evening, as they continued drinking alcoholic beverages, they ingested an additional 50 mg of SELBEX® (geranylgeranylacetone) orally. The next morning when they awoke, they ingested an additional 50 mg of SELBEX® (geranylgeranylacetone), bringing the total ingested during a fourteen hour period to 150 mg.

[1] = cited from earlier work
[2] = cited from earlier work; remark: listed apart in the source

**Q.** With `CC(=O)CC/C=C(\C)CC/C=C(\C)CC/C=C(\C)CCC=C(C)C` [SELBEX® (geranylgeranylacetone), 3:2 (5E:5Z) geometrical mixture of (9E,13E)-6,10,14,18-tetramethyl-5,9,13,17-nonadecatetraen-2-one] as the molecule, how does the “symptoms of hangover (abdominal discomfort, nausea, fatigue, and headache)” value (hangover) read?
**A.** either abolished or markedly alleviated

**Q.** And the “miscibility with organic solvents” value ([1]; methanol, ethanol, acetone, chloroform, and hexane)?
**A.** miscible

**Q.** And the solubility in water ([1]; water)?
**A.** practically insoluble

**Q.** And the stability to air [2]?
**A.** affected by air
